Like-named read-outs stand apart in the source and are kept apart here. Marks after values point to notes of the source that are not given here.
Columns and labels:
[1] = tested on: Foreign-Body Granuloma Formation; test: Rat foreign-body granuloma formation (implanted cotton string), two-week daily treatment; format: in vivo, rats; conditions: two weeks, (dry weight of string with adherent granuloma tissue - dry weight of string)/dry weight of string
Source text: Sterile tared cotton string was surgically implanted (bilaterally) under the abdominal skin of ether anesthetized rats on day 1 of the study period, and then randomly placing rats in a group to be daily treated with saline, aspirin or the NSAID complexed with Phospholipon 90G over a two-week period.
At the completion of the study period the string with the adherent granuloma tissue was surgically dissected from the euthanized rats and dried in a vacuum for several days at room temperature, until a baseline dry weight was obtained. The difference between this value and the initial dry weight of the string prior to implantation divided by the latter value provided an estimate of the weight of granuloma tissue.

[2] = format: physicochemical; conditions: NSAID sodium salt 100mM, 25°C, neutral conditions, alone or sonicated with 0.5 mM DPPC or DPPG; the sodium-salicylate line is with DPPC; FIG. 3
Experimental: The diffusion of aspirin (alone and complexed with phospholipid) from water into cyclohexane was used as a model to estimate the membrane permeability of the drug.
The sodium salt of ASA (also salicylate) was dissolved in 5 ml of water at a final concentration of 100mM (pH adjusted to 6.0) and gently stirred at 25°C. An equal volume of cyclohexane was layered over the aqueous solution and the entry of the NSAID into the organic phase was monitored fluorometrically over time. In order to determine the effect of phospholipid association on the lipid permeability of the NSAID, ASA (or salicylate) at the above concentration was sonicated in the presence of 0.5 mM phospholipid (DPPC or DPPG) in water (adjusted to a pH of 7), and its rate of diffusion into the cyclohexane phase was measured fluorometrically. […] This entire process could be completed in < 30 seconds.

[3] = tested on: rats; test: Acute gastric lesions in rats after salicylate-based NSAID and 0.6 N HCl challenge; format: in vivo, male Sprague Dawley rats; conditions: intragastrically administered in association with DPPC versus without; rats challenged with 0.6N HCl; FIG. 4A
Experimental: Ten minutes later, the rats were intragastrically challenged with 1 ml of 0.6 N HCI.
One of a number of NSAIDs was intragastrically administered to rats alone or preassociated with an equimolar concentration of DPPC or Phospholipon 90 G (purified soya lecithin, prepared by Nattermann GmbH of Cologne Germany) in several models of acute and chronic injury of the upper GI tract. Two contrasting animal models were employed to determine the ability of DPPC to protect against acute NSAID injury to the GI tract. For salicylate-based NSAIDs, which primarily induce stomach injury, gastric lesions were scored in fasted rats who were initially treated with aspirin or salicylate alone or complexed with DPPC and challenged 10 minutes later with a supra-physiological dose of HCl. For non-salicylate NSAIDs (indomethacin, diclofenac and naproxen) which predominantly induce injury to the mid-distal regions of the small intestine, the quantity of intraluminal blood was assessed in the distal half of the small intestine of rats who were pre- and post-treated with the Nitric Oxide synthetase inhibitor, L-NAME (N-nitro-L-arginine methyl ester).

[4] = tested on: rats; test: Rat fever model (Brewer's yeast), antipyretic activity by rectal temperature; format: in vivo; conditions: for enhancement in anti-pyretic activity of the NSAID/DPPC complex compared to the NSAID alone: sodium salts complexed with equimolar DPPC, first three hours after intragastric administration
Experimental: Similar antipyretic analyses were performed with the sodium salts of the following NSAIDs: diclofenac (10 mg/kg), indomethacin (10 mg/kg) and naproxen (30 mg/kg), alone and complexed with an equimolar concentration of DPPC. All test solutions were titrated to a pH of 4.5 prior to intragastric administration. Rectal temperatures were monitored in conscious, restrained rats at all indicated times.
The ability of NSAIDs (administered alone and complexed with DPPC) to reduce fever in rats was determined.

[5] = tested on: Foreign-Body Granuloma Formation in Rats; test: Foreign-body granuloma formation in rats, low dose aspirin (9 mg/kg) alone or with phospholipid/neutral lipids; format: in vivo; conditions: aspirin 9 mg/kg intragastric twice a day, 5 doses, starting five days after implantation; (n); spread in next table row
Source text: Sterile tared string was surgically implanted. Five days later rats were intragastrically administered twice a day with either saline, ASA alone, or ASA lipid mixtures.

[6] = tested on: rats; format: in vivo; conditions: aspirin 90mg/kg daily intragastric over 2 weeks, (n) rats/group
Experimental: Rats were treated with ASA over a two week period to investigate the chronic effects of NSAID exposure (in the presence and absence of phospholipids) on hematocrit, gastric mucosal hydrophobicity, and granuloma formation. […] The test solutions (saline, ASA and ASA/Phospholipon 90G complex) were intragastrically administered between 8AM - 9AM daily during the two week study period. In these chronic exposure experiments, ASA was complexed with an equimolar concentration of Phospholipon 90G (purified soya lecithin, prepared and obtained from Nattermann GmbH of Cologne, Germany) instead of DPPC. At the completion of the study period, blood was collected into a capillary tube for the determination of hematocrit and the stomach was excised for contact angle analysis.
Contact angle analysis was performed with the use of a goniometer on excised gastric mucosal tissue, that was lightly blotted and dried, as previously outlined (Hills et al., 1983; Goddard et al., 1987; Goddard et al., 1990). Briefly, this was accomplished by applying a droplet of water (~ 5µl) to the tissue surface, and employing the telescopic eyepiece of the goniometer to measure the maximal angle that is dissected at the triple point, where the solid/liquid/ and air interface meet.

[7] = tested on: Platelet Aggregation; test: Ristocetin platelet aggregation test; format: cell-based

Compound: CC(=O)Oc1ccccc1C(=O)O [ASA, acetyl-salicylic acid]
- Granuloma Formation ([1]; ASA 90 mg/kg): 1.90 ± 0.10^b
- Granuloma Formation ([1]; ASA 140 mg/kg): 1.07 ± 0.09^b
- passive diffusion (flux) from water into cyclohexane [2]: negligible
- injurious potential to induce gastric lesions [3]: remarkably decreased
- antipyretic activity ([4]; ASA 4.5 mg/kg (subthreshold), alone or complexed with equimolar DPPC, FIG. 9): no antipyretic activity alone
- antipyretic activity ([4]; ASA 9.0 mg/kg (subthreshold), intragastric, alone or with equimolar phospholipid, FIG. 6 (five hour period) and FIG. 8): does not have significant antipyretic activity
- antipyretic activity after antisecretory pre-treatment ([4]; aspirin 20 mg/kg (FIG. 22: 18 mg/kg) in conjunction with proton pump inhibitor omeprazole (Prilosec), IP 150 mg/kg two hours before): failed to reduce fever
- antipyretic activity after antisecretory pre-treatment ([4]; aspirin 20 mg/kg (FIG. 23: 18 mg/kg) in conjunction with Ranitidine (Zantac), IP 2 mg/kg 1 hour before): failed to reduce fever
- antipyretic activity ([4]; aspirin alone at doses of < 10 mg/kg, 4 hour study period, FIG. 7): failed to reduce the fever
- Foreign-Body Granuloma Formation [5]: 3.89(8)
- Gastric Mucosal Hydrophobicity (degrees, Contact Angle) [6]: 15.8 ± 6.6^c(6) degrees
- Hematocrit [6]: 47.8 ± 0.2^c(10)
- activity at 10 µM ([7]; read-out: % Platelet Aggregation, High Ristocetin (1.5 mg/ml) Test, ASA 0.01mM, DPPC equimolar where added): 100%
- activity at 100 µM ([7]; read-out: % Platelet Aggregation, High Ristocetin (1.5 mg/ml) Test, ASA 0.1 mM, DPPC equimolar where added): 83%
- activity at 1000 µM ([7]; read-out: % Platelet Aggregation, High Ristocetin (1.5 mg/ml) Test, ASA 1.0 mM, DPPC equimolar where added): 95%
- activity at 1000 µM ([7]; read-out: % Platelet Aggregation, High Ristocetin (1.5 mg/ml) Test, ASA 1.0 mM, second study, DPPC equimolar where added): 100%
- activity at 10 µM ([7]; read-out: % Platelet Aggregation, Low Ristocetin (0.75) mg/ml Test, ASA 0.01mM, DPPC equimolar where added): 65%
- activity at 100 µM ([7]; read-out: % Platelet Aggregation, Low Ristocetin (0.75) mg/ml Test, ASA 0.1mM, DPPC equimolar where added): 26%
- activity at 1000 µM ([7]; read-out: % Platelet Aggregation, Low Ristocetin (0.75) mg/ml Test, ASA 1.0mM, second study, DPPC equimolar where added): 39%
- activity at 1000 µM ([7]; read-out: % Platelet Aggregation, Low Ristocetin (0.75) mg/ml Test, ASA 1.0mm, DPPC equimolar where added): 80%

Compound: COc1ccc2c(c1)c(CC(=O)O)c(C)n2C(=O)c1ccc(Cl)cc1 [indomethacin, acetic acid]
- anti-pyretic activity with DPPC versus NSAID alone ([4]; indomethacin 10 mg/kg with DPPC, FIG. 18): ability of DPPC to enhance the anti-pyretic activity of ASA was seen
- enhancement in anti-pyretic activity of the NSAID/DPPC complex compared to the NSAID alone [4]: -0.28 °C

Compound: O=C(O)c1ccccc1O [salicylate, salicylic acid]
- injurious potential to induce gastric lesions [3]: remarkably decreased
- anti-pyretic activity with DPPC versus NSAID alone ([4]; salicylic acid 70 mg/kg dose with DPPC, FIG. 21): ability of DPPC to enhance the anti-pyretic activity

Compound: CCCCCCCCCCCCCCCC(=O)OCC(COP(=O)([O-])OCC[N+](C)(C)C)OC(=O)CCCCCCCCCCCCCCC (stereo not drawn) [DPPC, dipalmitoyl phosphatidylcholine]
- activity at 1000 µM ([7]; High Ristocetin (1.5 mg/ml) Test, ASA 0.00, DPPC alone at 1 mM, read-out: % Platelet Aggregation): 100%
- activity at 1000 µM ([7]; Low Ristocetin (0.75) mg/ml Test, ASA 0.00, DPPC alone at 1 mM, read-out: % Platelet Aggregation): 94%

Compound: COc1ccc2cc([C@H](C)C(=O)O)ccc2c1 [naproxen, 2-(6-methoxy-2-naphthyl)-propinic acid]
- anti-pyretic activity with DPPC versus NSAID alone ([4]; naproxen 25 mg/kg dose with DPPC, FIG. 19): ability of DPPC to enhance the anti-pyretic activity
- enhancement in anti-pyretic activity of the NSAID/DPPC complex compared to the NSAID alone [4]: -0.30 °C

Compound: O=C(O)Cc1ccccc1Nc1c(Cl)cccc1Cl [diclofenac, 2-(2,6-dichlorophenylamino)-phenylacetic acid]
- anti-pyretic activity with DPPC versus NSAID alone ([4]; diclofenac 10 mg/kg with DPPC, FIG. 20): ability of DPPC to enhance the anti-pyretic activity
- enhancement in anti-pyretic activity of the NSAID/DPPC complex compared to the NSAID alone [4]: -0.29 °C

From EP1214940B1, “Methods of enhancing the therapeutic activity of NSAIDs and compositions of zwitterionic phospholipids useful therein” (Board of Regents, The University of Texas System, priority 1995, dated 1996)
